Assay results taken from patent US5364615A (priority 1992, dated 1994).

What was measured:
Pneumocystis carinii [1] = settings: cited from earlier work
Pneumocystis carinii [2] = settings: in vivo; cited from earlier work
Pneumocystis carinii [3] = assay: Randomized clinical trial of PCP prophylaxis (Example 8); assay type: in vivo, human
[4] = human, in vivo; cited from earlier work
[5] = Adverse reactions and toxicity during PCP therapy (Example 3); settings: inhaled pretreatment; 9 patients

Nc1ccc(S(=O)(=O)c2ccc(N)cc2)cc1 [Dapsone, diaminodiphenylsulfone]
failure rate for PCP (Pneumocystis carinii [1]; dapsone alone): about 39%
efficacy in rat PCP model (Pneumocystis carinii [2]): effective

Cc1cn([C@H]2C[C@H](N=[N+]=[N-])[C@@H](CO)O2)c(=O)[nH]c1=O [zidovudine]
reduction of PCP risk (Pneumocystis carinii [3]; AZT use, Cox models, with aerosolized pentamidine): two-fold
mortality (Pneumocystis carinii [3]; participants who had taken zidovudine, on aerosolized pentamidine, never taken: 67%): 28%

COc1cc(NCc2ccc3nc(N)nc(N)c3c2C)cc(OC)c1OC [trimetrexate]
adverse reactions [4]: Adverse reactions have been reported
relapse rate within one month (Pneumocystis carinii [1]; human, in vivo): relapse rates within one month appear to be high

NCCC[C@](N)(C(=O)O)C(F)F [DFMO, α-difluoromethylornithine]
clinical response (Pneumocystis carinii [1]; recent clinical studies): some clinical response
efficacy in rat PCP model (Pneumocystis carinii [2]): hot efficacious

CC(C)NCC(O)c1cc(O)cc(O)c1 (stereo not drawn) [metaproterenol]
control of aerosol-related cough [5]: in 9 patients cough was mild and controlled
